In patent US20210353579A1, “HIGH PENETRATION COMPOSITIONS AND USES THEREOF” (Techfields Pharma Co., Ltd., priority 2006, published 2021):
Converted amounts (≈) assume the structure as drawn.

Assays:
[1] = Plasma levels after transdermal administration to hairless mice; assay type: in vivo; details: for t, time to peak plasma level after parent compound: parent compound administered (time when taken orally); for Peak plasma concentration after parent compound: parent compound administered, hairless mice
Experimental: Tested compounds (20% solution or suspension in 1 mL isopropanol) are administered transdermally to the skin of intact hairless mice. The plasma levels of the parent compounds are determined by HPLC.

human skin tissue = details: human, 20 %, pH 7.4
in vivo = details: rat
Experimental: The acute toxicity of the prodrug compounds and parent compounds are measured by LD50 of rat.

[2] = Solubility in water / aqueous solubility of HPPs and parent drugs; details: water
rats = assay: Antipyretic activity, E. coli suspension as pyrogen; assay type: in vivo; details: in °C (unit assumed)
Experimental: Rats are administered with sterilized E. coli suspension as a pyrogen. Each group of rats are administered with a prodrug compounds or parent compounds at a dosage specified below. The prodrug compounds are administered either orally or transdermally. The parent compounds are administered orally.

mice = assay: Analgesic activity, acetic acid writhing; assay type: in vivo; details: 30 min before acetic acid; for inhibition at 50 mg/kg / inhibition at 100 mg/kg: Mus musculus, po, read-out: % (rate of writhing inhibition)
Experimental: The prodrug compounds are administered either transdermally or orally. The parent compounds are administered orally. The number of writhing that occurred when mice are administered the acetic acid solution are counted, and the rate of inhibition based on the control group which was not pretreated with any test compounds is calculated. […] The A group is the control group.
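For LD50 in this document: acute toxicity in rats expressed as LD50, determined for both prodrugs and their parent compounds.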

C=C(C)CNc1ccc(C(C)C(=O)O)cc1 (stereo not shown) [Alminoprofen, alminoprofen]
t, time to peak plasma level after parent compound [1]: 2 to 4 h
Peak plasma concentration after parent compound [1]: 10 mg/L
In vitro penetration rate (apparent flux), parent compounds (human skin tissue): 30 μg/cm^2/h
LD50 (in vivo): 2400 mg/kg
solubility [2]: 100 µg/mL (≈ 456 µM)

Cc1cccc(Nc2ccccc2C(=O)O)c1C [Mefenamic acid, mefenamic acid]
t, time to peak plasma level after parent compound [1]: 2 to 4 h
Peak plasma concentration after parent compound [1]: 0.1 mg/L
In vitro penetration rate (apparent flux), parent compounds (human skin tissue): 10 μg/cm^2/h
LD50 (in vivo): 600 mg/kg
solubility [2]: < 100 µg/mL

O=C(O)c1cccnc1Nc1cccc(C(F)(F)F)c1 [Niflumic acid, niflumic acid]
t, time to peak plasma level after parent compound [1]: 2 to 4 h
Peak plasma concentration after parent compound [1]: 0.1 mg/L
In vitro penetration rate (apparent flux), parent compounds (human skin tissue): 10 μg/cm^2/h
LD50 (in vivo): 650 mg/kg
solubility [2]: < 100 µg/mL

CC(C(=O)O)c1ccc2c(c1)Cc1cccnc1O2 (stereo not shown) [Pranoprofen, pranoprofen]
t, time to peak plasma level after parent compound [1]: 2 to 4 h
Peak plasma concentration after parent compound [1]: 10 mg/L
In vitro penetration rate (apparent flux), parent compounds (human skin tissue): 30 μg/cm^2/h
LD50 (in vivo): 450 mg/kg
solubility [2]: 200 µg/mL (≈ 783 µM)

CC(C(=O)O)c1ccc(N2Cc3ccccc3C2=O)cc1 (stereo not shown) [Indoprofen, indoprofen]
t, time to peak plasma level after parent compound [1]: 2 to 4 h
Peak plasma concentration after parent compound [1]: 10 mg/L
In vitro penetration rate (apparent flux), parent compounds (human skin tissue): 30 μg/cm^2/h
LD50 (in vivo): 700 mg/kg
solubility [2]: 100 µg/mL (≈ 355 µM)

Cc1cc(CC(=O)O)n(C)c1C(=O)c1ccc(Cl)cc1 [Zomepirac, zomepirac]
t, time to peak plasma level after parent compound [1]: 1 to 2 h
Peak plasma concentration after parent compound [1]: 0.1 mg/L
In vitro penetration rate (apparent flux), parent compounds (human skin tissue): 10 μg/cm^2/h
LD50 (in vivo): 27 mg/kg
solubility [2]: 200 µg/mL (≈ 686 µM)

Nc1c(CC(=O)O)cccc1C(=O)c1ccccc1 [Amfenac, amfenac]
t, time to peak plasma level after parent compound [1]: 1 to 2 h
Peak plasma concentration after parent compound [1]: 0.1 mg/L
In vitro penetration rate (apparent flux), parent compounds (human skin tissue): 10 μg/cm^2/h
LD50 (in vivo): 310 mg/kg
solubility [2]: 200 µg/mL (≈ 783 µM)

CN1C(C(=O)Nc2ccccn2)=C(O)c2ccccc2S1(=O)=O [Piroxicam, piroxicam]
t, time to peak plasma level after parent compound [1]: 2 to 4 h
Peak plasma concentration after parent compound [1]: 0.1 mg/L
In vitro penetration rate (apparent flux), parent compounds (human skin tissue): <1 μg/cm^2/h
LD50 (in vivo): 360 mg/kg
solubility [2]: < 100 µg/mL

CC(=O)Oc1ccccc1C(=O)O [Aspirin, acetylsalicylic acid, reference compound]
t, time to peak plasma level after parent compound [1]: ~2 h
Peak plasma concentration after parent compound [1]: 0.1 mg/L
In vitro penetration rate (apparent flux), parent compounds (human skin tissue): <1 μg/cm^2/h
body temperature, t = 0 min (rats; 100 mg/kg orally): 37.22 ± 0.05
body temperature, t = 90 min (rats; 100 mg/kg orally): 36.80 ± 0.05
body temperature, t = 180 min (rats; 100 mg/kg orally): 36.85 ± 0.05
body temperature, t = 270 min (rats; 100 mg/kg orally): 36.81 ± 0.05
body temperature, t = 0 min (rats; 150 mg/kg orally): 37.30 ± 0.06
body temperature, t = 90 min (rats; 150 mg/kg orally): 36.50 ± 0.05
body temperature, t = 180 min (rats; 150 mg/kg orally): 36.59 ± 0.05
body temperature, t = 270 min (rats; 150 mg/kg orally): 36.55 ± 0.05
No. of Writhing (mice; 50 mg/kg orally): 18.2
No. of Writhing (mice; 100 mg/kg orally): 13.2
inhibition at 50 mg/kg (mice; 50 mg/kg orally): 45%
inhibition at 100 mg/kg (mice; 100 mg/kg orally): 60%
LD50 (in vivo): 1500 mg/kg
solubility [2]: 10 µg/mL (≈ 55.5 µM)

O=C(O)Cc1cn(-c2ccccc2)nc1-c1ccc(Cl)cc1 [Lonazolac, lonazolac, reference compound]
t, time to peak plasma level after parent compound [1]: 1 to 2 h
Peak plasma concentration after parent compound [1]: 0.1 mg/L
LD50 (in vivo): 1000 mg/kg
solubility [2]: 100 µg/mL (≈ 320 µM)

O=C(O)c1ccccc1Nc1cccc(C(F)(F)F)c1 [Flufenamic acid, flufenamic acid]
t, time to peak plasma level after parent compound [1]: 2 to 4 h
Peak plasma concentration after parent compound [1]: 0.1 mg/L
In vitro penetration rate (apparent flux), parent compounds (human skin tissue): 10 μg/cm^2/h
LD50 (in vivo): 720 mg/kg
solubility [2]: < 100 µg/mL

CCc1cccc2c3c([nH]c12)C(CC)(CC(=O)O)OCC3 (stereo not shown) [Etodolac, etodolac]
t, time to peak plasma level after parent compound [1]: 1 to 2 h
Peak plasma concentration after parent compound [1]: 0.1 mg/L
In vitro penetration rate (apparent flux), parent compounds (human skin tissue): 10 μg/cm^2/h
LD50 (in vivo): 460 mg/kg
solubility [2]: 100 µg/mL (≈ 348 µM)

O=C(O)C1CCc2cc(C3CCCCC3)c(Cl)cc21 (stereo not shown) [Clidanac, clidanac]
t, time to peak plasma level after parent compound [1]: 2 to 4 h
Peak plasma concentration after parent compound [1]: 10 mg/L
In vitro penetration rate (apparent flux), parent compounds (human skin tissue): 40 μg/cm^2/h
LD50 (in vivo): 35 mg/kg
solubility [2]: 100 µg/mL (≈ 359 µM)

CC(C(=O)O)c1ccc2c(c1)[nH]c1ccc(Cl)cc12 (stereo not shown) [Carprofen, carprofen]
t, time to peak plasma level after parent compound [1]: 2 to 4 h
Peak plasma concentration after parent compound [1]: 10 mg/L
In vitro penetration rate (apparent flux), parent compounds (human skin tissue): 40 μg/cm^2/h
LD50 (in vivo): 400 mg/kg
solubility [2]: 100 µg/mL (≈ 365 µM)

CC(C)Cc1ccc(C(C)C(=O)O)cc1 (stereo not shown) [Ibuprofen, 2-(ρ-isobutylphenyl) propionic acid, reference compound]
t, time to peak plasma level after parent compound [1]: 1 to 2 h
Peak plasma concentration after parent compound [1]: 2 mg/L
In vitro penetration rate (apparent flux), parent compounds (human skin tissue): 50 μg/cm^2/h
body temperature, t = 0 min (rats; 100 mg/kg orally): 37.25 ± 0.06
body temperature, t = 90 min (rats; 100 mg/kg orally): 36.83 ± 0.05
body temperature, t = 180 min (rats; 100 mg/kg orally): 36.80 ± 0.08
body temperature, t = 270 min (rats; 100 mg/kg orally): 36.78 ± 0.07
body temperature, t = 0 min (rats; 150 mg/kg orally): 37.35 ± 0.09
body temperature, t = 90 min (rats; 150 mg/kg orally): 36.59 ± 0.07
body temperature, t = 180 min (rats; 150 mg/kg orally): 36.53 ± 0.06
body temperature, t = 270 min (rats; 150 mg/kg orally): 36.55 ± 0.05
No. of Writhing (mice; 50 mg/kg orally): 17.2
No. of Writhing (mice; 100 mg/kg orally): 13.1
inhibition at 50 mg/kg (mice; 50 mg/kg orally): 50%
inhibition at 100 mg/kg (mice; 100 mg/kg orally): 62%
LD50 (in vivo): 1500 mg/kg

O=C(O)Cc1ccccc1Oc1ccc(Cl)cc1Cl [Fenclofenac, fenclofenac]
t, time to peak plasma level after parent compound [1]: 1 to 2 h
Peak plasma concentration after parent compound [1]: 0.1 mg/L
In vitro penetration rate (apparent flux), parent compounds (human skin tissue): 10 μg/cm^2/h
LD50 (in vivo): 2280 mg/kg
solubility [2]: 100 µg/mL (≈ 337 µM)

COc1ccc2c(c1)c(CC(=O)O)c(C)n2C(=O)c1ccc(Cl)cc1 [Indomethacin, indomethacin]
t, time to peak plasma level after parent compound [1]: 1 to 2 h
Peak plasma concentration after parent compound [1]: 0.1 mg/L
In vitro penetration rate (apparent flux), parent compounds (human skin tissue): 10 μg/cm^2/h
LD50 (in vivo): 13 mg/kg
solubility [2]: 100 µg/mL (≈ 279 µM)

COc1ccc2c(c1)c(CC(=O)OCC(=O)O)c(C)n2C(=O)c1ccc(Cl)cc1 [Acemetacin, acemetacin]
t, time to peak plasma level after parent compound [1]: 1 to 2 h
Peak plasma concentration after parent compound [1]: 0.1 mg/L
In vitro penetration rate (apparent flux), parent compounds (human skin tissue): 10 μg/cm^2/h
LD50 (in vivo): 24 mg/kg
solubility [2]: 100 µg/mL (≈ 240 µM)

O=C(O)C(Cl)c1ccc(C2CCCCC2)c(Cl)c1 (stereo not shown) [Fenclorac, fenclorac]
t, time to peak plasma level after parent compound [1]: 2 to 4 h
Peak plasma concentration after parent compound [1]: 10 mg/L
In vitro penetration rate (apparent flux), parent compounds (human skin tissue): 40 μg/cm^2/h
LD50 (in vivo): 430 mg/kg
solubility [2]: 200 µg/mL (≈ 696 µM)

Cc1ccc(C(=O)c2ccc(CC(=O)O)n2C)cc1 [Tolmetin, tolmetin]
t, time to peak plasma level after parent compound [1]: 1 to 2 h
Peak plasma concentration after parent compound [1]: 0.1 mg/L
In vitro penetration rate (apparent flux), parent compounds (human skin tissue): 10 μg/cm^2/h
LD50 (in vivo): 350 mg/kg
solubility [2]: 200 µg/mL (≈ 777 µM)

CC(C(=O)O)c1ccc2oc(-c3ccc(Cl)cc3)nc2c1 (stereo not shown) [Benoxaprofen, benoxaprofen]
t, time to peak plasma level after parent compound [1]: 2 to 4 h
Peak plasma concentration after parent compound [1]: 10 mg/L
In vitro penetration rate (apparent flux), parent compounds (human skin tissue): 40 μg/cm^2/h
LD50 (in vivo): 800 mg/kg
solubility [2]: 100 µg/mL (≈ 331 µM)
